Laboratory results as given in patent publication US20250241840A1, “ORALLY ADMINISTRATED COSMETIC COMPOSITIONS TO TREAT SKIN DRYNESS” (IIAA Limited, priority 2022, published 2025).

Experiments:
[1] = tested on: human subjects with dry skin and mild to moderate atopic dermatitis; conditions: 200 mg/day GLA orally; measurements at weeks 0, 4, 8, 12 and 16; cited from earlier work
skin of the cheek = test: Example 1: 28-day oral hyaluronic acid study, hydration, TEWL and wrinkle depth of the skin of the cheek; format: in vivo, human; conditions: 200 mg HA orally once daily, 28 days
Procedure: A cachet containing 200 mg hyaluronic acid (HA) was administered orally, once daily, to 30 subjects for 28 days. The hyaluronic acid administered in this manner consisted of hyaluronic acid molecules having molecular weights in a range of from 50 to 2200 kDa. The hydration, TEWL and wrinkle depth of the skin of the cheek of each subject was measured on the first day of the 28-day study and on the last day of the 28-day study. A Courage+Khazaka Dual 580 Multi Probe Adapter System fitted with a Corneometer™ CM 825 probe (obtainable from Courage & Khazaka Electronic GmbH of Mathias-Brüggen-Straße 91, 50829 Köln, Germany) was used to measure the surface hydration of the subjects' skin. A Courage+Khazaka Dual 580 Multi Probe Adapter System fitted with a Tewameter™ 300 probe was used to measure the TEWL of the subjects' skin. A PRIMOS 3D™ optical skin measurement device was used to measure the depth and width of wrinkles in the subjects' skin. The average percentage change in each of the parameters measured from the first day of the 28-day study to the last day of the 28-day study was calculated.

| Compound | Effect on TEWL [1] | Skin surface hydration, average percentage change over the course of the 28-day study (skin of the cheek; Corneometer CM 825) | Skin surface hydration, average percentage change over the course of the 28-day study (skin of the cheek; Corneometer CM 825, listed as HA) | Wrinkle depth, average percentage change over the course of the 28-day study (skin of the cheek; PRIMOS 3D) | TEWL, average percentage change over the course of the 28-day study (skin of the cheek; Tewameter 300) |
| --- | --- | --- | --- | --- | --- |
| CCCCC/C=C\C/C=C\C/C=C\CCCCC(=O)O [GLA, all-cis-6,9,12-octadecatrienoic acid] | reduce TEWL | – | – | – | – |
| hyaluronic acid | – | +10.6% | +10.6% | −18.8% | −3.9% |
